Measurements reported in patent US20140255301A1, “METHODS FOR DETECTING NEURODEGENERATIVE DISEASES OR DISORDERS” (priority 2010, published 2014).
“Also recorded” adds a separate entry of the source. Numbered stars: 1 amine (or outer) side, 2 acyl side, 3 side chain; on linkers, the order of the positions; unused ones are H or OH. Bridge positions count the residues as written; N and C are the ends. Square brackets hold non-standard residues; d marks the D form. Peptide text beside a SMILES is read from it. I, II: the chains in the order shown. Actinocin(9to1) = Cc1c2oc3c(C)ccc(C(=O)[*:1])c3nc-2c(C(=O)[*:2])c(N)c1=O; NMeV = CN[C@H](C(=O)O)C(C)C; Sar = CNCC(=O)O

Columns and labels:
[1] = test system: axon degeneration of DRG neurons following NGF withdrawal; assay: Campenot chamber localized axon degeneration after NGF withdrawal (Tuj1 immunostaining); format: cell-based, mouse; conditions: for axon degeneration due to NGF deprivation, inhibitor applied to the axon (axon inhibition): inhibitor in axon compartment, 28 hours NGF deprivation of axons, anti-NGF antibody 50 μg/ml; for axon degeneration due to NGF deprivation, inhibitor applied to the cell body (cell body inhibition): inhibitor in cell body compartment with 25 ng/ml NGF, axons deprived of NGF
Method: Campenot chambers were used to perform the following experiments which allow for the separation of somal and axonal environments, and permit the induction of localized degeneration (see FIG. 1 and, e.g., Zweifel et al., Nat. Rev. Neurosci. 6(8):615-625, 2005). In such chambers, axon degeneration is localized and proceeds without apoptosis.
Mouse laminin (5 μg/ml in sterile filtered water; Invitrogen) was added to PDL coated 35 mm dishes (BD Biosciences) and they were incubated for 1 hour at 37° C., followed by two rinses in SQ water. The dishes were vacuum-dried and then air-dried in a laminar flow hood for 15 minutes. Prepared dishes were then scored with a pin rake (Tyler Research). Fifty microliters of NBM+MC solution containing NGF was applied across the resulting score tracks. The NBM+MC solution was made as follows: 1750 mg of methylcellulose was combined with 480 ml of Neurobasal (Invitrogen), to which was added 4.5 ml penicillin/streptomycin, 7.5 ml L-glutamine, and 10 ml B-27 serum-free supplement (Invitrogen). The solution was mixed for one hour at room temperature, overnight at 4° C., and one further hour at room temperature. The solution was then filter sterilized, and 50 ng/ml NGF (Roche) was added prior to use. High vacuum grease (VWR) was added to each Teflon divider under a dissection scope. The laminin coated PDL dishes were inverted and dropped onto the Teflon divider, with additional pressure added by use of a toothpick in the non-track-containing regions. Dishes were incubated for 1 hour at 37° C. Five hundred microliters of NBM+MC (50 ng/ml NGF) solution was added to each of the side compartments, and a grease barrier was added in front of the center cell slot.
Free E13.5 spinal cords were dissected from mouse embryos and placed into NBM+MC (25 ng/ml NGF) solution. DRGs were detached from the spinal cord with a tungsten needle. An NBM+MC-lubricated P200 pipette was used to move DRGs into a 1.5 ml tube. DRGs were pelleted with a tabletop centrifuge for 30 seconds. The supernatant was discarded and 0.05% Trypsin/EDTA (cold) was added. The pellet was resolubilized with a pipette and incubated at 37° C. for 15 minutes with constant agitation (650 RPM). The sample was again centrifuged and the supernatant discarded. The pellet was resuspended in warm NBM+MC (50 ng/ml NGF) solution and triturated with a flamed glass pipette 20 times, followed by trituration with a fire-bored glass pipette another 20 times. The samples were again centrifuged and the resulting pellets were resuspended in 0.5 ml NBM+MC (50 ng/ml NGF) solution. The cells were diluted to a final concentration of 2.5×10^6 cells/ml. The cell suspensions were loaded into a 1 ml syringe with a 22 gauge needle. The center slot of the Campenot divider was filled using the syringe (to a volume of at least 50 μl). The Campenot chamber was incubated overnight at 37° C. 2.5 ml NGF+MC (50 ng/ml NGF) solution was added to the center compartment and the grease gate was removed. The outer medium (cell body compartment) was replaced after three days with 2.5 ml NBM+MC medium (with 25 ng/ml NGF).
After five days in culture, the axonal compartment was washed three times with warmed NBM+MC (no NGF) solution. After the third wash, 500 μl NBM+MC (no NGF) solution was added to the axon compartment in combination with either 0.5% DMSO or an inhibitor. The cell body compartment was replaced with 2.5 ml NBM+MC medium (with 25 ng/ml NGF) containing either 0.5% DMSO or inhibitor. Fifty μg/ml anti-NGF antibody was added to the axonal compartment. Another axon compartment was maintained in NGF as a control.
After 28 hours of NGF deprivation for axons, and 25 hours of NGF deprivation for cell bodies, 8% PFA/30% sucrose solution was added directly to the culture medium at a 1:1 dilution and incubated for 30 minutes. The Teflon divider was removed after the first 15 minutes of addition. […]

[2] = test system: dleu2 and tbx6 expression; assay: Time course microarray analysis of neurons in Campenot chambers undergoing axon loss; format: cell-based, mouse; conditions: 30 μM inhibitor in outer compartment, NGF deprivation for 6 and 12 hours
Method: Based on the experiments described above, glycogen synthase kinase-3 (GSK-3) was identified as being a regulator of a genetic axon degeneration program acting specifically in the cell body to regulate distal axon degeneration. To identify GSK3 regulated axon degeneration genes, time course microarray analysis was performed on neurons selectively undergoing […], with or without GSK-3 inhibition.
Briefly, neurons were isolated and cultured in Campenot chambers as previously described. Campenot chambers were set up with 50 μM 5-fluoro-2′-deoxyuridine/uridine (both Sigma) added to the culture medium to reduce contamination by non-neuronal cells. On day 5, both axon compartments were washed three times with NGF-free medium and on the fourth wash, replaced with medium containing NGF (control) or NGF antibodies (50 μg/ml) (911, Genetech). The outer compartment was replaced with medium containing 30 μM of the GSK3 inhibitor ARA (EMD Biosciences) or 0.3% DMSO. RNA was extracted from neurons with or without GSK3 ARA treatment which had been cultured with NGF or deprived of NGF for 6 and 12 hours. RNA was prepared with Trizol® (Invitrogen) followed by the RNeasy® Micro Kit processing with DNAse I treatment (Qiagen) as described in Appendix C of the RNeasy® Micro Kit manual. For each condition, five Agilent Whole Mouse Genome microarray chips were used with single amplification.

Compound	axon degeneration due to NGF deprivation, inhibitor applied to the axon (axon inhibition) [1]	axon degeneration due to NGF deprivation, inhibitor applied to the axon (axon inhibition) ([1]; listed as actinomycin D)	axon degeneration due to NGF deprivation, inhibitor applied to the cell body (cell body inhibition) [1]	axon degeneration due to NGF deprivation, inhibitor applied to the cell body (cell body inhibition) ([1]; listed as actinomycin D)	overexpression of dleu2 and tbx6 in neurons deprived of NGF [2]	overexpression of dleu2 and tbx6 in neurons deprived of NGF ([2]; listed as GSK3.ARA)
Cc1c2oc3c(C)ccc(C(=O)N[C@@H]4C(=O)N[C@H](C(C)C)C(=O)N5CCC[C@H]5C(=O)N(C)CC(=O)N(C)[C@@H](C(C)C)C(=O)O[C@@H]4C)c3nc-2c(C(=O)N[C@@H]2C(=O)N[C@H](C(C)C)C(=O)N3CCC[C@H]3C(=O)N(C)CC(=O)N(C)[C@@H](C(C)C)C(=O)O[C@@H]2C)c(N)c1=O [Act D, actinomycin D] (I: T[dV]P[Sar][NMeV] / II: T[dV]P[Sar][NMeV]; ester I:1-I:C, II:1-II:C; linker I:N-II:N via Actinocin(9to1))	did not prevent axonal degradation	did not provide the same protective effect	axon degradation due to NGF deprivation was reduced	prevented axonal degeneration	–	–
N#C/C(=C\c1ccc(O)c(O)c1)C(=O)NCCCc1ccccc1 [AG555]	exhibited less degeneration; also recorded: prevented axonal degradation	–	failed to prevent degeneration; also recorded: did not provide the same protective effect	–	–	–
COc1ccc(CNC(=O)Nc2ncc([N+](=O)[O-])s2)cc1 [GSK3 ARA]	–	–	–	–	overexpression of these genes is not observed at any time point	Increased expression of dleu2 and tbx6 is not observed
COc1nccc(-c2c(-c3ccc(F)cc3)ncn2C2CCC(O)CC2)n1 (stereo not drawn) [SB239]	exhibited less degeneration; also recorded: prevented axonal degradation	–	failed to prevent degeneration; also recorded: did not provide the same protective effect	–	–	–
O=C1NC(=O)C(c2ccccc2[N+](=O)[O-])=C1Nc1ccc(O)c(Cl)c1 [SB415]	did not prevent axonal degradation; also recorded: did not provide the same protective effect	–	axon degradation due to NGF deprivation was reduced; also recorded: prevented axonal degeneration	–	–	–
